Laboratory results: patent US6087376A (priority 1998, dated 2000)
Where “and” joins values, the source holds several entries; their conditions need not be identical. Identical values can stand only once. Entries after “also recorded” stand apart in the source; their conditions may differ. Like-named read-outs stand apart in the source and are kept apart here.

Legend:
reserpine site on VMAT2 = conditions: read-out: IC50, inhibition of binding to the reserpine site; cited from earlier work
VMAT2 knockout mice = conditions: mouse, in vivo; cited from earlier work
[1] = system: rat striatal slices preloaded with [3H]DA; assay: [3H]DA release assay: drug-evoked [3H]overflow / fractional release from rat striatal slices preloaded with [3H]DA; format: cell-based
Experimental: (§1) Rat striata were rapidly dissected on ice and were sliced using a McIlwain tissue chopper. […] Slices were rinsed with 15 mL fresh buffer and then incubated in fresh buffer containing 0.1 μM [^3 H]DA (6-8 slices/3 mL) for an additional 30 min. Subsequently, slices were rinsed with 15 mL fresh buffer and transferred to a glass superfusion chamber. […] After 60 min of superfusion when basal outflow was stabilized, two 5-min samples (5 mL) were collected to determine basal [^3 H]outflow.
The concentration-response for each drug was determined using a repeated-measures design.
(§2) The pH and volume of the solubilized tissue samples were adjusted to those of the superfusate samples.
(§3) Fractional release for each superfusate sample was calculated by dividing the tritium collected in each sample by the total tritium present in the tissue at the time of sample collection. Fractional release was expressed as a percentage of total tritium in the tissue at the time of sample collection. Basal outflow was calculated from the average of the tritium collected in the two 5-min samples just before the addition of drug.
(§4) Inhibition of synaptosomal and vesicular [^3 H]DA uptake were analyzed by repeated-measures, one-way ANOVA, and by an iterative nonlinear least-squares curve-fitting program (GraphPAD-PRIZM; GraphPAD, San Diego, Calif.) to obtain IC50 values. Dunnett's post hoc test was used to compare treatment means to a single control mean. Also, Duncan's New Multiple Range Test or Fisher's LSD post hoc analysis were used to compare pairs of treatment means. Duncan's New Multiple Range Test was used when significant one-way ANOVA's were obtained or when significant main effects were obtained in the two-way ANOVA's. Fisher's LSD post hoc analysis is a more conservative test, which takes into account error which cumulates during multiple comparisons of pairs of means. Fisher's LSD analysis was used when the interaction term was significant in the two-way ANOVAs, specifically in the post hoc analysis of drug×time interactions. Statistical significance was reached when P<0.05 (two-tailed, unless otherwise indicated).

[2] = system: nicotine (10 μM)-evoked [3H]overflow from rat striatal slices; assay: Mecamylamine antagonism of nicotine-evoked [3H]overflow from rat striatal slices; format: cell-based
Experimental: as §1
To determine the ability of mecamylamine to antagonize nicotine-evoked [^3 H]overflow, a repeated-measure design was utilized also. Individual slices were superfused with a single concentration (0.01-100 μM) of mecamylamine for 60 min, followed by 60 min of superfusion with nicotine (10 μM) in the presence of the various mecamylamine concentrations. One slice in each experiment was superfused in the absence of mecamylamine to determine the effect of nicotine alone. A control slice was superfused with buffer alone.
as §2, §3, §4

[3] = biological target: T1, plasma membrane DA transporter (rat striatal synaptosomes) (Rattus norvegicus, UniProt P23977); assay: [3H]DA uptake assay, striatal synaptosomal preparation; format: biochemical; conditions: nicotine 0.001 nM-100 μM
T1 construct: from tissue; host or cells: rat striatum, synaptosomes
T1 sequence (P23977 whole entry): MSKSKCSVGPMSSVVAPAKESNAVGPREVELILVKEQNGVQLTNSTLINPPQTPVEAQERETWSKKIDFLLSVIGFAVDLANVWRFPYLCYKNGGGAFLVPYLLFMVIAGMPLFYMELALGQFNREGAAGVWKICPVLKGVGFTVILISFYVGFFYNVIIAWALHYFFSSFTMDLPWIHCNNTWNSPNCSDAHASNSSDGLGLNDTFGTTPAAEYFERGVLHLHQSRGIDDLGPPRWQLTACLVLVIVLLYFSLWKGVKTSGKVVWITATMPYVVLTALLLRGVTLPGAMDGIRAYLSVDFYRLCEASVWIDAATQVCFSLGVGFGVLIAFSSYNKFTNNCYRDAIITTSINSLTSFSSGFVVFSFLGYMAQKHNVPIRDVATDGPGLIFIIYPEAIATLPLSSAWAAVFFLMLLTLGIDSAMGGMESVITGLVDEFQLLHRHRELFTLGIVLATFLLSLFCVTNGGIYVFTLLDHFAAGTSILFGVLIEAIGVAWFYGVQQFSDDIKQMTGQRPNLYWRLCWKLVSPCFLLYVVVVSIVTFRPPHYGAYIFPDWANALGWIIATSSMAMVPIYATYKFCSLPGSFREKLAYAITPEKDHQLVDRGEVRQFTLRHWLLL
Experimental: The homogenate was centrifuged at 2,000×g for 10 min at 4° C. […] The final protein concentration was 400 μg/mL. The assay was performed in duplicate in a total volume of 500 μL. […] The incubation continued for 10 min at 34° C. The reaction was terminated by the addition of 3 mL cold assay buffer (without 1 mM catechol). Samples were rapidly filtered through a Whatman GF/B filter using a Brandel cell harvester (model MP-43 RS, Biochemical Research and Development Laboratories, Inc., Gaithersburg, Md.) and the filter was subsequently washed 3 times with 4 mL of cold assay buffer containing 1 mM catechol. Filters were previously soaked for 2 hrs in the cold assay buffer containing 1 mM catechol. […] Filters were placed into scintillation vials, 10 mL of scintillation cocktail was added and radioactivity was determined by scintillation spectrometry.
(§5) Inhibition of synaptosomal and vesicular [^3 H]DA uptake were analyzed by repeated-measures, one-way ANOVA, and by an iterative nonlinear least-squares curve-fitting program (GraphPAD-PRIZM; GraphPAD, San Diego, Calif.) to obtain IC50 values. Dunnett's post hoc test was used to compare treatment means to a single control mean. Also, Duncan's New Multiple Range Test or Fisher's LSD post hoc analysis were used to compare pairs of treatment means. […]

[4] = biological target: T2, synaptic vesicular monoamine transporter (VMAT2), rat striatal synaptic vesicles (Rattus norvegicus, UniProt Q01827); assay: [3H]DA uptake assay, striatal synaptic vesicles; format: biochemical; conditions: nicotine
T2 construct: from tissue; host or cells: rat striatum, synaptic vesicles
T2 sequence (Q01827 whole entry): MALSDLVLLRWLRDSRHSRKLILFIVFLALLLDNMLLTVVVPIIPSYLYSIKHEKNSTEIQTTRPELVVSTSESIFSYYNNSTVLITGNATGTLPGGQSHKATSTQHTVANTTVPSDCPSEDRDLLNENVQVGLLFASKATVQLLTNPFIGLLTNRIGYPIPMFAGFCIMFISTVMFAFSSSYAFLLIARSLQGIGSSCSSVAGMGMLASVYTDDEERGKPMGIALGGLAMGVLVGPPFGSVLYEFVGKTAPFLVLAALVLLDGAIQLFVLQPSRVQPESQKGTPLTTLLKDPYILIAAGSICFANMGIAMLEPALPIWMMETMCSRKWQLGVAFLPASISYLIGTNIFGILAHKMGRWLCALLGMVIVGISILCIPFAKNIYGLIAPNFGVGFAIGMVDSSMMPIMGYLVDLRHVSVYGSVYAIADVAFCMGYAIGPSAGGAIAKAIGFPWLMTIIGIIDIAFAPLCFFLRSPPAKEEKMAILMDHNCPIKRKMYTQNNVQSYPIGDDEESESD
Experimental: (§6) The homogenate was then centrifuged at 2,000×g for 10 min at 4° C. and the resulting supernatant was centrifuged at 10,000×g for 30 min at 4° C. Synaptosomes (buffy coat) were separated from the underlying mitochondria and cellular debris (reddish pellet) by gentle swirling in 2 mL of 0.32 M sucrose. The enriched synaptosome fraction (2.0 mL) was subjected to osmotic shock by addition of 7 mL distilled H2 0 and was homogenized with 5 up and down strokes of the TEFLON pestle. The osmolarity was restored by the addition of 900 μL of 0.25 M HEPES and 900 μL of 1.0 M neutral potassium-tatrate buffer (pH 7.5) followed by a 20 min centrifugation (20,000×g at 4° C.). The supernatant was then centrifuged for 60 min (55,000×g at 4° C.).
Samples were rapidly filtered through Whatman GF/F filters using the Brandel cell harvester.
as §5

[5] = biological target: central nicotinic receptors; conditions: read-out: Kd, binding to nicotinic receptors; cited from earlier work
[6] = system: nicotinic receptors in mouse brain; conditions: in vivo; cited from earlier work
[7] = system: locomotor activity in rats; conditions: rat, in vivo; cited from earlier work
[8] = system: conditioned place preference in rats; conditions: rat, in vivo; cited from earlier work
[9] = system: rat striatal slices preloaded with [3H]DA; conditions: cited from earlier work
[10] = system: self-administration by rats; conditions: rat, in vivo; cited from earlier work
[11] = system: nicotinic receptors in rat brain; conditions: in vivo; cited from earlier work
rat brain vesicles = conditions: cited from earlier work
[12] = biological target: T3, vesicular monoamine transporter-2 (VMAT2), DTBZ/TBZ site, rat striatal vesicle membranes (Rattus norvegicus, UniProt Q01827); assay: [3H]DTBZ binding to rat striatal vesicles; conditions: 2 nM [3H]DTBZ
T3 construct: from tissue; host or cells: rat striatum, synaptic vesicles
T3 sequence (Q01827 whole entry): as above

[13] = system: rat striatal synaptic vesicles; assay: [3H]DA release from striatal synaptic vesicles preloaded with [3H]DA; format: biochemical
Experimental: as §6
The final vesicle pellet from a pool of striata from three rats was resuspended in 3 mL of release assay buffer (in mM: 25 HEPES, 100 L-(+)-tartaric acid dipotassium salt, 0.05 EGTA, 0.10 EDTA, 2 Mg^2+ -ATP, and 1.7 ascorbic acid, pH 7.4) and then incubated with [^3 H]DA (0.3 μM) for 8 min at 37° C. […] [^3 H]DA efflux represents the net result of events, i.e., release and reuptake. […] The reaction was terminated by addition of 2.5 mL of ice-cold assay buffer containing 2 mM MgSO4. Samples were rapidly filtered through Whatman GF/F filters using the Brandel cell harvester.
The amount of drug-induced [^3 H]DA release from synaptic vesicles was calculated by subtracting the amount of tritium remaining in the drug-exposed samples from that remaining in the control samples (in the absence of drug). The amount of drug-induced [^3 H]DA release was then divided by the amount of tritium remaining in the control samples and was expressed as a percentage of control.
Concentration-response and kinetic data were analyzed by repeated-measures one-way ANOVA and between-group one-way ANOVA, respectively. When appropriate, Fisher's least significant difference post hoc test was used to determine significant differences between treatment means. IC50 and EC50 values were obtained by an iterative nonlinear least-squarescurve-fitting program (GraphPAD-PRIZM: GraphPAD, San Diego, Calif., U.S.A.) for one-site competition and sigmoidal concentration response, respectively. The t1/2 was obtained by an iterative nonlinear least-squares curve-fitting program for one-phase decay. KD and Bmax values were obtained by Scatchard analysis using an iterative linear least-squares curve-fitting program.

human VMAT2 [14] = conditions: read-out: Ki, inhibition of monoamine uptake; cited from earlier work
[15] = biological target: [3H]DTBZ binding site, rat striatal homogenates; conditions: read-out: Ki, inhibition of [3H]DTBZ binding; cited from earlier work
human VMAT2 [16] = conditions: read-out: Ki, inhibition of [3H]DTBZ binding; cited from earlier work
monoamine oxidase = conditions: cited from earlier work

CN[C@@H](C)Cc1ccccc1 [Methamphetamine]
IC50 (reserpine site on VMAT2): 400 nM

CC(N)Cc1ccccc1 (stereo not shown) [amphetamine]
conditioned place preference in VMAT2 knockout vs wild-type mice (VMAT2 knockout mice): diminished amphetamine-induced conditioned place preference

CN1CCC[C@H]1c1cccnc1 [Nicotine]
minimal effective concentration ([1]; Rattus norvegicus, read-out: lowest concentration which evoked a significant increase in [3H]overflow): 0.05 µM
time to peak fractional release after addition of drug ([1]; nicotine): 10 to 15 min
peak fractional release ([1]; nicotine 100 μM): 2 % of total tritium in the slice
total [3H]overflow ([2]; mecamylamine 0 μM (control)): 5.60 ± 1.20
inhibition of [3H]DA uptake into striatal synaptosomes [3]: did not inhibit; also recorded: no inhibition of synaptosomal [^3 H]DA uptake was observed; also recorded: no effect was observed
concentration giving significant inhibition of vesicular [3H]DA uptake [4]: 1 mM and ~ 1 mM
Kd [5]: 1 to 7 nM
number of nicotinic receptors after chronic treatment [6]: increase in the number of nicotinic receptors
locomotor activity [7]: increase locomotor activity
conditioned place preference [8]: produce conditioned place preference
mechanism of nicotine-evoked DA release [9]: calcium-dependent, mecamylamine-sensitive and mediated by nicotinic receptors
self-administration [10]: avidly self-administered by rats
number of nicotinic receptors after chronic treatment [11]: increase in the number of nicotinic receptors

COc1cc2c(cc1OC)C1CC(=O)C(CC(C)C)CN1CC2 (stereo not shown) [Tetrabenazine]
effect on spontaneous efflux of [3H]DA (rat brain vesicles): does not alter spontaneous efflux

C[C@H](N)Cc1ccccc1 [d-Amphetamine]
lowest concentration to significantly inhibit [3H]DTBZ binding [12]: 10 µM
potency in releasing DA from synaptic vesicles vs lobeline [13]: 10 fold
lowest concentration to evoke [3H]DA release from vesicles ([13]; 8 min, 37° C.): 1 µM
EC50 ([13]; 8 min, 37° C., read-out: EC50, evoked [3H]DA release from synaptic vesicles): 2220 ± 130 nM
Ki (human VMAT2 [14]): ~2000 nM
Ki [15]: > 20000 nM
Ki (human VMAT2 [16]): 300000 nM
inhibition of monoamine oxidase (monoamine oxidase): inhibits monoamine oxidase

CNC1(C)C2CCC(C2)C1(C)C (stereo not shown) [Mecamylamine]
inhibition at 0.01 µM ([2]; Rattus norvegicus, mecamylamine 0.01 μM, read-out: inhibition of nicotine's effect (fractional release)): 36%
minimal effective concentration ([2]; Rattus norvegicus, read-out: lowest concentration to produce significant inhibition of nicotine's effect (fractional release, collapsed across time)): 0.01 µM
Total [3H]overflow evoked by nicotine ([2]; mecamylamine 0.01 μM): 3.57 ± 1.52
Total [3H]overflow evoked by nicotine ([2]; mecamylamine 0.1 μM, P<0.05 one-tailed): 2.40 ± 0.87
Total [3H]overflow evoked by nicotine ([2]; mecamylamine 1 μM, P<0.05 two-tailed): 1.59 ± 0.64
Total [3H]overflow evoked by nicotine ([2]; mecamylamine 10 μM, P<0.05 two-tailed): 1.02 ± 0.43
Total [3H]overflow evoked by nicotine ([2]; mecamylamine 100 μM, P<0.05 two-tailed): 0.54 ± 0.32
